Source: paper PMC11462456 (Chemical Science, 2024)

Experiments:
[1] = Parallel artificial membrane permeability assay (PAMPA); type: in vitro ADME; conditions: 10 uM, pH 7.4, four hours
Procedure: 4.9 Study of membrane permeability of single-ligand and dual-ligand PROTACs Parallel artificial membrane permeability assay (PAMPA) is a non-cell based assay designed to predict passive, transcellular permeability of a test compound through a PVDF membrane filter pretreated with lipid. At a given pH a log Pe (log of effective permeability) can be determined by a UV spectrophotometer. […]
is carried out in the company of Eurofins Panlabs, 6 Research Park Dr. St. Charles, MO 63304, U.S.A. The results are attached as an excel file.
Sample preparation The test compound is prepared from a 10 mM DMSO stock solution and diluted to a single final concentration of 10 uM in donor buffer. The donor solution is placed in contact with the acceptor buffer at a single pH = 7.4 with the membrane in between and the sandwich is incubated for four hours at ambient temperature.
Reference compounds Ketoprofen, propranolol and furosemide. The reference compounds yield log Pe (10-6 cm/s) values that cover the typical range of the assay from high (Propranolol), mid (Ketoprofen) to low (Furosemide) permeability.
Analytical method UV/Vis spectrophotometer
The UV absorption is measured from 250 to 500 nm for both donor and acceptor plate.
Adjustments to the method may be made as necessary to improve detection or UV spectrum.
Data analysis The amount of compound UV absorbance is determined in the donor plate prior to starting the experiment for each compound. The UV absorbance was measured from the (1 picture or pasted object on this page, not shown here) […]
donor and acceptor plate after a four hour incubation time. The log Pe was calculated using […]
4.10 Statistical Analysis.
Data analyses were performed using GraphPad Prism 9 software. The results are presented as the mean ± standard deviation (SD) or standard error of mean (SEM). All statistical analyses were evaluated with one-way analysis of variance (ANOVAs), or unpaired Student’s t-test. The difference was considered statistically significant when P < 0.05.

[2] = system: BRD2, BRD3, and BRD4 proteins; experiment: Western blot BET protein degradation in HEK293 cells (screen, washout kinetics, proteasome rescue); type: cell-based, human; conditions: 4 h, 0.1 μM and 1 μM
Text: 4. Biological experiments
Primary antibodies used for western blotting included anti-human BRD2(1:2000, rabbit monoclonal, Abcam, ab139690), anti-human BRD3 (1:1000, rabbit monoclonal, Abcam, ab264420), anti-human BRD4 (E2A7X) (1:1000, rabbit monoclonal, Cell Signaling Technology, #13440), anti-human VHL (1:1000, rabbit polyclonal, Cell Signaling Technology, #68547), anti-human CRBN (D8H3S) (1:1000, rabbit polyclonal, Cell Signaling Technology, #71810), anti-human alpha Tubulin, clone B-5-1-2 (1:5000, mouse monoclonal, Merck Life Science, # 32-2500).Secondary antibodies used for western blot included: anti-mouse horseradish peroxidase-linked antibody (1:3000, sheep, GE Healthcare Life Sciences, #NA931V), and anti-rabbit horseradish peroxidase-linked antibody (1:8000, donkey, GE Healthcare Life Sciences, #NA934V). Reagent for degradation assay and compounds […]
dr. Serge Van Calenbergh, Ghent University).
4.2 Cell lines and culture […]
General method of Western blot: Lysates were sonicated and centrifuged at 4 °C at 20000 g for 15 min, and the supernatants were transferred to new tubes. Protein concentration of cell lysates was measured using the DC Protein Assay kit (BIO-RAD) following manufacturer's instructions. […]
Figure S1 Dual-ligand PROTACs induce target protein degradation in A549 cells. […] Subsequently, cells were lysed and BRD2, BRD3 and BRD4 protein levels were measured by Western blot. […]

In the case of Cc1ncsc1-c1ccc(CNC(=O)C2CC(O)CN2C(=O)C(NC(=O)COCCOCCOCCNC(=O)CC2N=C(c3ccc(Cl)cc3)c3c(sc(C)c3C)-n3c(C)nnc32)C(C)(C)C)cc1 (centres unmarked) [MZ1, reference compound], the membrane permeability [1] is reported as “very limited membrane permeability”.

With Cc1ncsc1-c1ccc(C(C)NC(=O)C2CC(O)CN2C(=O)C(NC(=O)COCCOCCNC(=O)CC(NC(=O)CCc2cn(CCOCCOCCOCCOCC(=O)NC(CC(=O)NCCOCCOCCNC(=O)CC3N=C(c4ccc(Cl)cc4)c4c(sc(C)c4C)-n4c(C)nnc43)C(=O)NCCOCCOCCNC(=O)CC3N=C(c4ccc(Cl)cc4)c4c(sc(C)c4C)-n4c(C)nnc43)nn2)C(=O)NCCOCCOCC(=O)NC(C(=O)N2CC(O)CC2C(=O)NC(C)c2ccc(-c3scnc3C)cc2)C(C)(C)C)C(C)(C)C)cc1 (centres unmarked) [2J2V] the “degradation efficiency versus single- and trivalent PROTACs” value [2] was “superior degradation efficiency” and the membrane permeability [1] was “very limited membrane permeability”.

With Cc1sc2c(c1C)C(c1ccc(Cl)cc1)=N[C@@H](CC(=O)NCCOCCOCCNC(=O)C[C@H](NC(=O)COCCOCCOCCOCCn1cc(CCC(=O)N[C@@H](CC(=O)NCCOCCOCCNc3cccc4c3C(=O)N(C3CCC(=O)NC3=O)C4=O)C(=O)NCCOCCOCCNc3cccc4c3C(=O)N(C3CCC(=O)NC3=O)C4=O)nn1)C(=O)NCCOCCOCCNC(=O)C[C@@H]1N=C(c3ccc(Cl)cc3)c3c(sc(C)c3C)-n3c(C)nnc31)c1nnc(C)n1-2 (some centres unmarked) [2J2P] the “degradation efficiency versus single- and trivalent PROTACs” value [2] was “superior degradation efficiency” and the membrane permeability [1] was “high membrane permeability”.
